Data reported in paper PMC9339071, “Toward in vivo proof of binding of ^18F-labeled inhibitor [^18F]TRACK to peripheral tropomyosin receptor kinases” (EJNMMI Research, 2022).

Molecular target: T1, TrkA (tropomyosin 3-TrkA fusion protein, TPM3-NTRK1) (Homo sapiens, UniProt P04629)
T1 construct: tropomyosin 3-TrkA fusion protein (TPM3-NTRK1), endogenous in KM12 cells
Test: competition with [18F]TRACK radiotracer uptake in intact KM12 cells
Type: cell-based

T1 sequence (P04629 405-796 limits assumed): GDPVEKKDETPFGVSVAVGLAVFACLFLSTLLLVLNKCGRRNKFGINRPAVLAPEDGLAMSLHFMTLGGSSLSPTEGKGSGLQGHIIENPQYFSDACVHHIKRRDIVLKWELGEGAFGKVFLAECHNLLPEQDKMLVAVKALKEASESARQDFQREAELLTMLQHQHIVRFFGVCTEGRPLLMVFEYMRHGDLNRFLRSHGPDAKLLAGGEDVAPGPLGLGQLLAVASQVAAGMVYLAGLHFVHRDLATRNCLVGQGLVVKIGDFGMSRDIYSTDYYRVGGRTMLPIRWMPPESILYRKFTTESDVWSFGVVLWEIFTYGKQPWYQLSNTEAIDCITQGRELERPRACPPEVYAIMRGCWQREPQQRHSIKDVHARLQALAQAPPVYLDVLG
T1 sequence (P06753 2-285 partner): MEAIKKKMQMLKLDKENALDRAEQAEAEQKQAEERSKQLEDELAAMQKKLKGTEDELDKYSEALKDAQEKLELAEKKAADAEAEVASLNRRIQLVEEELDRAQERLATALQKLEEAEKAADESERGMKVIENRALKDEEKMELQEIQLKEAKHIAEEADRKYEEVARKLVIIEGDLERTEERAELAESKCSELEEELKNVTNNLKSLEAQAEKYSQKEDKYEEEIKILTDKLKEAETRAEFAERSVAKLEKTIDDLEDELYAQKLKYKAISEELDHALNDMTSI

## O=C(Nc1ccc(F)c(F)c1)c1cnc2ccc(N3CCC[C@@H]3c3cccc(F)c3)nn12 [TRACK]
  IC50: 29.4 ± 9.4 nM
